Experimental data published in patent publication US7173004B2, “Macrocyclic isoquinoline peptide inhibitors of hepatitis C virus” (Bristol-Myers Squibb Company, priority 2003, dated 2007).

Molecular target: T1, HCV NS3/4A protease complex, BMS strain (genotype 1a) (UniProt P27958, C1454S/C1711G, species not given/STRAIN_BMS)
T1 construct: b1001: DNA encoding the recombinant HCV NS3/4A protease complex (amino acids 1027 to 1711) ... a three-lysine solubilizing tail was added at the 3′-end of the NS4A coding region; fused on or other part: Three-lysine solubilising tail at the C-terminus of NS4A; A His tag is implied by the pET21b vector and Ni-NTA purification
Experiment: Recombinant HCV NS3/4A protease complex FRET peptide assay, BMS strain
Assay type: biochemical
Conditions: NS3/4A BMS strain; activity range symbols
Summary of the method: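 Recombinant NS3/4A (aa 1027–1711) from H77C, J4L6S or BMS strains, with C1454S and C1711G mutations and three-lysine tail, expressed in E. coli and Ni-NTA/gel-filtration purified to >90%. Inhibition of cleavage of a FRET peptide substrate measured.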

Row | SMILES | IC50 [nM]
1 | COc1cccc2c(OC3CC4C(=O)NC5(C(=O)NS(=O)(=O)C6CC6)CC5C=CCCCCCC(NC(=O)OC(C)(C)C)C(=O)N4C3)nccc12 (centres unmarked) [Compound 133] | < 50
2 | COc1ccc2c(OC3CC4C(=O)NC5(C(=O)NS(=O)(=O)C6CC6)CC5C=CCCCSC(C)(C)C(NC(=O)NC5CCCC5)C(=O)N4C3)nccc2c1 (centres unmarked) [Compound 82] | < 50
3 | CC(C)(C)OC(=O)N[C@H]1CNCCC/C=C\[C@@H]2C[C@@]2(C(=O)NS(=O)(=O)C2CC2)NC(=O)[C@@H]2C[C@@H](Oc3nccc4ccccc34)CN2C1=O [Compound 151] | < 50
4 | COC(=O)N1CCC/C=C\[C@@H]2C[C@@]2(C(=O)NS(=O)(=O)C2CC2)NC(=O)[C@@H]2C[C@@H](Oc3nccc4ccccc34)CN2C(=O)[C@@H](NC(=O)OC(C)(C)C)C1 [Compound 148] | < 50
5 | CC1(COC(=O)NC2CCCCCC=CC3CC3(C(=O)NS(=O)(=O)C3CC3)NC(=O)C3CC(Oc4nccc5ccccc45)CN3C2=O)CC1 (centres unmarked) [Compound 122] | < 50
6 | CC(C)(C)COC(=O)N1CCCC=CC2CC2(C(=O)NS(=O)(=O)C2CC2)NC(=O)C2CC(Oc3nccc4ccccc34)CN2C(=O)C(NC(=O)OC(C)(C)C)C1 (centres unmarked) [Compound 149] | < 50
7 | CC(C)(C)OC(=O)NC1CN(C(=O)C2CC2)CCCC=CC2CC2(C(=O)NS(=O)(=O)C2CC2)NC(=O)C2CC(Oc3nccc4ccccc34)CN2C1=O (centres unmarked) [Compound 152] | < 50
8 | COc1ccc2c(OC3CC4C(=O)NC5(C(=O)NS(=O)(=O)C6CC6)CC5C=CCCCOCC(NC(=O)N5CCCC5)C(=O)N4C3)nc(-c3ccccc3)cc2c1 (centres unmarked) [Compound 93] | < 50
9 | CCC1(S(=O)(=O)NC(=O)C23CC2C=CCCCSCC(NC(=O)OC(C)(C)C)C(=O)N2CC(Oc4nccc5cc(OC)ccc45)CC2C(=O)N3)CC1 (centres unmarked) [Compound 121] | < 50
10 | COc1ccc2c(OC3CC4C(=O)NC5(C(=O)NS(=O)(=O)C6CC6)CC5C=CCCCOCC(NC(=O)N5CCCC5)C(=O)N4C3)nc(-c3ccc(N(C)C)cc3)cc2c1 (centres unmarked) [Compound 111] | < 50
11 | CC(C)(C)NC(=O)N1CCC/C=C\[C@@H]2C[C@@]2(C(=O)NS(=O)(=O)C2CC2)NC(=O)[C@@H]2C[C@@H](Oc3nccc4ccccc34)CN2C(=O)[C@@H](NC(=O)OC(C)(C)C)C1 [Compound 150] | < 50
12 | COc1ccc2c(OC3CC4C(=O)NC5(C(=O)NS(=O)(=O)C6(C)CC6)CC5C=CCCCSCC(NC(=O)OC(C)(C)C)C(=O)N4C3)nccc2c1 (centres unmarked) [Compound 115] | < 50
13 | COc1ccc2c(OC3CC4C(=O)NC5(C(=O)NS(=O)(=O)C6CC6)CC5C=CCCCOCC(NC(=O)NC(C)(C)C)C(=O)N4C3)nc(-c3ccc(N(C)C)cc3)cc2c1 (centres unmarked) [Compound 108] | < 50
14 | CC(=O)N1CCC/C=C\[C@@H]2C[C@@]2(C(=O)NS(=O)(=O)C2CC2)NC(=O)[C@@H]2C[C@@H](Oc3nccc4ccccc34)CN2C(=O)[C@@H](NC(=O)OC(C)(C)C)C1 [Compound 146] | < 50
15 | CCSC(=O)NC1CCCCCC=CC2CC2(C(=O)NS(=O)(=O)C2CC2)NC(=O)C2CC(Oc3nccc4ccccc34)CN2C1=O (centres unmarked) [Compound 118] | < 50
16 | COc1ccc2c(O[C@@H]3C[C@H]4C(=O)N[C@]5(C(=O)NS(=O)(=O)C6CC6)C[C@H]5/C=C\CCCOC[C@H](NC(=O)OC(C)(C)C)C(=O)N4C3)nccc2c1 [Compound 85, (1S,4R,6S,14S,18R)-[7-cis-4-Cyclopropanesulfonylaminocarbonyl-18-(6-methoxy-isoquinolin-1-yloxy)-2,15-dioxo-12-oxa-3,16-diaza-tricyclo[14.3.0.0^4,6]nonadec-7-en-14-yl]-carbamic acid, tert-butyl ester] | < 50
17 | CC(C)(C)OC(=O)NC1CCCCCC=CC2CC2(C(=O)NS(=O)(=O)C2CC2)NC(=O)C2CC(Oc3nccc4c(Cl)cccc34)CN2C1=O (centres unmarked) [Compound 130] | < 50
18 | COc1ccc2c(OC3CC4C(=O)NC5(C(=O)NS(=O)(=O)C6CC6)CC5C=CCCCSC(C)(C)C(NC(=O)NC(C)(C)C)C(=O)N4C3)nccc2c1 (centres unmarked) [Compound 81] | < 50
19 | COc1ccc2c(OC3CC4C(=O)NC5(C(=O)NS(=O)(=O)C6CC6)CC5C=CCCCOCC(NC(=O)OC5CCCC5)C(=O)N4C3)nccc2c1 (centres unmarked) [Compound 90] | < 50
20 | CC(=O)C(C)(C)OC(=O)NC1CCCCCC=CC2CC2(C(=O)NS(=O)(=O)C2CC2)NC(=O)C2CC(Oc3nccc4ccccc34)CN2C1=O (centres unmarked) [Compound 123] | < 50
21 | COc1ccc2c(OC3CC4C(=O)NC5(C(=O)NS(=O)(=O)C6CC6)CC5C=CCOCCCC(NC(=O)OC(C)C)C(=O)N4C3)nc(-c3ccccc3)cc2c1 (centres unmarked) [Compound 98] | < 50
22 | COc1ccc2c(OC3CC4C(=O)NC5(C(=O)NS(=O)(=O)C6CC6)CC5C=CCOCCCC(NC(=O)N5CCNC5=O)C(=O)N4C3)nc(-c3ccccc3)cc2c1 (centres unmarked) [Compound 106] | < 50
23 | COc1ccc2c(OC3CC4C(=O)NC5(C(=O)NS(=O)(=O)C6CC6)CC5C=CCCCOCC(NC(=O)OC5CCCC5)C(=O)N4C3)nc(-c3ccccc3)cc2c1 (centres unmarked) [Compound 94] | < 50
24 | COc1ccc2c(OC3CC4C(=O)NC5(C(=O)NS(=O)(=O)C6CC6)CC5C=CCOCCCC(NC(=O)OCC(C)(C)C)C(=O)N4C3)nc(-c3ccccc3)cc2c1 (centres unmarked) [Compound 103] | < 50

Row | SMILES | IC50 [nM]
25 | COc1ccc2c(OC3CC4C(=O)NC5(C(=O)NS(=O)(=O)C6CC6)CC5C=CCCCOCC(NC(=O)OCC(C)(C)C)C(=O)N4C3)nccc2c1 (centres unmarked) [Compound 88] | < 50
26 | O=C(NC1CCCC1)NC1CCCCCC=CC2CC2(C(=O)NS(=O)(=O)C2CC2)NC(=O)C2CC(Oc3nccc4ccccc34)CN2C1=O (centres unmarked) [Compound 127] | < 50
27 | CC(C)NC(=O)NC1CCCCCC=CC2CC2(C(=O)NS(=O)(=O)C2CC2)NC(=O)C2CC(Oc3nccc4ccccc34)CN2C1=O (centres unmarked) [Compound 128] | < 50
28 | COc1ccc2c(OC3CC4C(=O)NC5(C(=O)NS(=O)(=O)C6CC6)CC5C=CCCCOCC(NC(=O)OC(C)C)C(=O)N4C3)nccc2c1 (centres unmarked) [Compound 89] | < 50
29 | CCC(C)(C)OC(=O)NC1CCCCCC=CC2CC2(C(=O)NS(=O)(=O)C2CC2)NC(=O)C2CC(Oc3nccc4ccccc34)CN2C1=O (centres unmarked) [Compound 125] | < 50
30 | COc1ccc2c(OC3CC4C(=O)NC5(C(=O)NS(=O)(=O)C6CC6)CC5C=CCCCSCC(N)C(=O)N4C3)nccc2c1 (centres unmarked) [Compound 117] | 50 to 500
31 | CC(C)(C)CC(C)(C)NC(=O)NC1CCCCCC=CC2CC2(C(=O)NS(=O)(=O)C2CC2)NC(=O)C2CC(Oc3nccc4ccccc34)CN2C1=O (centres unmarked) [Compound 129] | < 50
32 | COc1ccc2c(OC3CC4C(=O)NC5(C(=O)NS(=O)(=O)C6CC6)CC5C=CCCCCCC(NC(=O)OC(C)(C)C)C(=O)N4C3)nccc2c1F (centres unmarked) [Compound 132] | < 50
33 | COc1ccc2c(OC3CC4C(=O)NC5(C(=O)NS(=O)(=O)C6CC6)CC5C=CCOCCCC(NC(=O)NC(C)(C)C)C(=O)N4C3)nc(-c3ccccc3)cc2c1 (centres unmarked) [Compound 102] | < 50
34 | COc1ccc2c(OC3CC4C(=O)NC5(C(=O)NS(=O)(=O)C6CC6)CC5C=CCOCCCC(NC(=O)OC(C)(C)C)C(=O)N4C3)nc(-c3ccc(N(C)C=O)cc3)cc2c1 (centres unmarked) [Compound 114] | < 50
35 | COc1ccc2c(OC3CC4C(=O)NC5(C(=O)NS(=O)(=O)C6CC6)CC5C=CCCCSC(C)(C)C(N)C(=O)N4C3)nccc2c1 (centres unmarked) [Compound 83] | 500 to 5000
36 | CC(C)(C)OC(=O)N[C@H]1CN(S(=O)(=O)c2ccccc2[N+](=O)[O-])CCC/C=C\[C@@H]2C[C@@]2(C(=O)NS(=O)(=O)C2CC2)NC(=O)[C@@H]2C[C@@H](Oc3nccc4ccccc34)CN2C1=O [Compound 145] | < 50
37 | CC(C)(C)NC(=O)N[C@H]1CCCCC/C=C\[C@@H]2C[C@@]2(C(=O)NS(=O)(=O)C2CC2)NC(=O)[C@@H]2C[C@@H](Oc3nccc4ccccc34)CN2C1=O [Compound 126] | < 50
38 | CN1CCC/C=C\[C@@H]2C[C@@]2(C(=O)NS(=O)(=O)C2CC2)NC(=O)[C@@H]2C[C@@H](Oc3nccc4ccccc34)CN2C(=O)[C@@H](NC(=O)OC(C)(C)C)C1 [Compound 147] | < 50
39 | CC(C)(OC(=O)NC1CCCCCC=CC2CC2(C(=O)NS(=O)(=O)C2CC2)NC(=O)C2CC(Oc3nccc4ccccc34)CN2C1=O)C(Cl)(Cl)Cl (centres unmarked) [Compound 124] | < 50
40 | COc1ccc2c(OC3CC4C(=O)NC5(C(=O)NS(=O)(=O)C6CC6)CC5C=CCCCOCC(NC(=O)NC5CCCC5)C(=O)N4C3)nccc2c1 (centres unmarked) [Compound 87] | < 50
41 | COc1ccc2c(OC3CC4C(=O)NC5(C(=O)NS(=O)(=O)C6CC6)CC5C=CCCCOCC(NC(=O)OC(C)C)C(=O)N4C3)nc(-c3ccccc3)cc2c1 (centres unmarked) [Compound 96] | < 50
42 | CNc1ccc(-c2cc3cc(OC)ccc3c(OC3CC4C(=O)NC5(C(=O)NS(=O)(=O)C6CC6)CC5C=CCOCCCC(NC(=O)OC(C)(C)C)C(=O)N4C3)n2)cc1 (centres unmarked) [Compound 113] | < 50
43 | COc1ccc2c(OC3CC4C(=O)NC5(C(=O)NS(=O)(=O)C6CC6)CC5C=CCOCCCC(NC(=S)NC5CC5)C(=O)N4C3)nc(-c3ccccc3)cc2c1 (centres unmarked) [Compound 104] | < 50
44 | COc1ccc2c(OC3CC4C(=O)NC5(C(=O)NS(=O)(=O)C6CC6)CC5C=CCOCCCC(NC(=O)Nc5ccc(C#N)cc5)C(=O)N4C3)nc(-c3ccccc3)cc2c1 (centres unmarked) [Compound 105] | < 50
45 | COc1ccc2c(OC3CC4C(=O)NC5(C(=O)NS(=O)(=O)C6CC6)CC5C=CCCCCCC(NC(=O)NC(C)(C)C)C(=O)N4C3)nccc2c1 (centres unmarked) [Compound 135] | < 50
46 | COc1ccc2c(OC3CC4C(=O)NC5(C(=O)NS(=O)(=O)C6CC6)CC5C=CCOCCCC(NC(=O)N5CCCC5)C(=O)N4C3)nc(-c3ccccc3)cc2c1 (centres unmarked) [Compound 100] | < 50
47 | COc1ccc2c(OC3CC4C(=O)NC5(C(=O)NS(=O)(=O)C6CC6)CC5C=CCCCCCC(NC(=O)NC5CCCC5)C(=O)N4C3)nccc2c1 (centres unmarked) [Compound 136] | < 50
